Structures are written as SMILES. A value given as a limit tells only on which side of the number the result lay.

Data set [1] can be described thus: Cytotoxicity against African green monkey Vero A cells assessed as reduction in cell viability after 6 to 7 days by MTS assay. Format: cell-based. The following applies: chlorocebus sabaeus.
The nature of data set [2]: Selectivity index, ratio of CC50 for African green monkey Vero A cells to EC50 for Chikungunya virus Indian ocean strain 899 infected in African green monkey Vero A cells. The format is toxicity. Conditions: read-out: Ratio CC50/EC50.
Another data set has as its system Chikungunya virus. Nature of the data set: Antiviral activity against Chikungunya virus Indian ocean strain 899 infected in African green monkey Vero A cells assessed as reduction in viral-induced cytopathic effect after 6 to 7 days by MTS/PMS assay. The format is functional, organism-based. The following applies: Indian ocean 899, Vero. (In general: Cytopathic effects are the visible damage that an infection or toxin causes in cultured cells.)

With `C=C(C)C1C=C[C@@H](OC(C)=O)[C@@]23CO[C@@](C)([C@H](OC(=O)c4ccccc4)[C@@]4(O)C[C@H](C)[C@H](OC(=O)CC)[C@@H]4[C@H]2OC(C)=O)[C@H]13` (stereo partly specified), in data set [1], the CC50 – broadly, the concentration at which the toxic effect on the cells reaches its halfway point – came to 158 µM. Further, the selectivity ratio in data set [2] worked out at 1.9. Moreover, in the data set on Chikungunya virus, the EC50 (usually the concentration giving half of the maximal effect) was 84 µM.
With `CC(=O)OC[C@]12[C@H](OC(=O)c3ccccc3)[C@H]3[C@@H](OC(C)=O)[C@@H](C)C[C@]3(O)C(=O)[C@@](C)(OC(C)=O)[C@@H]1[C@@H]1[C@H](C[C@H]2OC(C)=O)C1(C)C`, in data set [1], the 50% cytotoxic concentration (CC50) is 171 µM. In addition, the selectivity ratio in data set [2] was 2.2. Also, in the data set on Chikungunya virus, the EC50 turned out to be 78 µM.
Take `CC(=O)OCC1=C[C@H]2[C@@H]3C(C)(C)[C@]3(OC(=O)C(C)C(C)C)C[C@@H](C)[C@]2(O)[C@@H]2C=C(C)C(=O)[C@H]2C1` (stereo partly specified): the CC50 in data set [1] was found to be 42.7 µM. Moreover, the selectivity ratio in data set [2] amounted to 10.6. The EC50 in the data set on Chikungunya virus amounted to 4 µM.
On the same counts, the results for `CCC(=O)O[C@@H]1[C@@H]2[C@@H](OC(=O)c3ccccc3)[C@]3(COC(C)=O)[C@H](O)C[C@H]4[C@@H]([C@H]3[C@](C)(O)C(=O)[C@@]2(OC(C)=O)C[C@@H]1C)C4(C)C` are 63.5 µM, 5.8 and 11 µM.
Turning to `CCC(=O)O[C@@H]1[C@@H]2[C@@H](OC(=O)c3ccccc3)[C@@]3(COC(C)=O)[C@@H]([C@@H]4[C@H](C[C@H]3OC(C)=O)C4(C)C)[C@](C)(CC(C)=O)C(=O)[C@@]2(O)C[C@@H]1C`, the EC50 in the data set with Chikungunya virus is over 144 µM.
`CCC(=O)O[C@@H]1[C@@H]2[C@@H](OC(=O)c3ccccc3)[C@@]3(COC(C)=O)[C@@H]([C@@H]4[C@H](C[C@H]3OC(C)=O)C4(C)C)[C@](C)(OC(=O)c3cccnc3)C(=O)[C@@]2(O)C[C@@H]1C`: the CC50 in data set [1] was over 159 µM. The selectivity ratio in data set [2] was under 2.4. Moreover, the EC50 in the data set on Chikungunya virus is over 107 µM.
On the same counts, the results for `CCC(=O)O[C@@H]1[C@@H]2[C@@H](OC(=O)C(C)CC)[C@@]3(COC(C)=O)[C@@H]([C@@H]4[C@H](C[C@H]3OC(C)=O)C4(C)C)[C@](C)(OC(C)=O)C(=O)[C@@]2(O)C[C@@H]1C` (stereo partly specified) are 153 µM, 2.2 and 107 µM.
For the compound `CC(=O)OC[C@]12[C@H](OC(=O)c3ccccc3)[C@H]3[C@@H](OC(C)=O)[C@@H](C)C[C@]3(OC(C)=O)C(=O)[C@@](C)(O)[C@@H]1[C@@H]1[C@H](C[C@H]2OC(C)=O)C1(C)C`, in the data set with Chikungunya virus, the EC50 is over 152 µM.
Turning to `CCC(C)C(=O)O[C@@H]1[C@H]2[C@@H](OC(C)=O)[C@@H](C)C[C@]2(O)C(=O)[C@@](C)(OC(C)=O)[C@@H]2[C@@H]3[C@H](C[C@@H](OC(C)=O)[C@@]12COC(C)=O)C3(C)C` (stereo partly specified), in data set [1], the CC50 is over 157 µM. In addition, in data set [2], the selectivity ratio was under 5. Moreover, in the data set on Chikungunya virus, the EC50 was over 50 µM.
On to `CC(=O)OCC1=C[C@H]2[C@@H]3C(C)(C)[C@]3(OC(=O)C(C)C(C)C)C[C@@H](C)[C@]2(O)[C@@H]2C=C(C)C(=O)[C@@H]2C1` (stereo partly specified), for which the EC50 in the data set on Chikungunya virus is over 11 µM.
As to `CCN(CC)CCCC(C)Nc1ccnc2cc(Cl)ccc12` (stereo unspecified) [CHLOROQUINE], in data set [1], the cytotoxic concentration (CC50) worked out at 89 µM. In the data set with Chikungunya virus, the EC50 stood at 11 µM.

These data come from ChEMBL document CHEMBL4190241, “Isolation of Premyrsinane, Myrsinane, and Tigliane Diterpenoids from Euphorbia pithyusa Using a Chikungunya Virus Cell-Based Assay and Analogue Annotation by Molecular Networking” (J Nat Prod, 2017).
